Results taken from PMC11796224, “Merck Open Global Health Library in vitro screening against Schistosoma mansoni identified two new substances with antischistosomal activities for further development” (Parasites & Vectors, 2025).
Like-named read-outs stand apart in the source and are kept apart here.

Experiments:
adult S. mansoni couples = assay: In vitro screening of OGHL compounds and analogues against adult S. mansoni couples (Giessen); assay type: cell-based, Schistosoma mansoni; conditions: 10 µM; for Effect on egg production: after 24 h, compared to control
Description: For in vitro culture in Giessen, M199 medium (Gibco) containing 10% newborn calf serum, 1% HEPES (1 M) and 1% ABAM solution (10,000 units penicillin, 10 mg streptomycin and 25 µg amphotericin B per millilitre) were used. After perfusion, the worms were transferred to petri dishes with 5 mL medium using featherweight tweezers. The worms were cultured at 37 °C and 5% CO2. After 24 h, stably paired couples were selected for inhibitor assays.
The initial screening by the Giessen team covered the 250 compounds of the OGHL, and in a subsequent, second screening approach, an additional 58 analogues of the compounds OGHL22 and OGHL121, which were tested on S. mansoni couples in vitro. For each compound, three replicates of five couples randomised from different hamsters were used. The couples were transferred to 6-well plates (or 12-well plates) containing 2 mL pre-heated medium. For each compound, the stock solution was pre-diluted in pre-heated medium, and then added to each replicate, resulting in a final volume of 2.5 mL and a final concentration of 10 µM. A negative control was included for all assays. For this, three replicates were prepared with DMSO (0.1%) as volume substitution of the stock solution. The worms were cultured at 37 °C and 5% CO2. As physiological parameters, worm motility, pairing stability, and attachment were assessed after 4 h and 24 h. After 24 h, egg production was also estimated (see below).
For the first screening approach, the Giessen team evaluated pairing stability by counting couples at the time of scoring. Attachment was determined by counting the number of worms (couples or single worms) that were attached to any surface. Motility was scored on a scale of 0–4. The average activity of the worms in the negative control was used as a reference value for normal activity: 4 indicated increased activity, 3 normal activity, 2 reduced activity, 1 little activity with occasional head and tail movements and/or gut movement, 0 no activity for at least 20 s. The number of eggs was estimated after 24 h. Compared to the control, categories for egg production were defined as fewer eggs (score 0), similar numbers of egg (score 1) and more eggs (score 2). The corresponding percentages of the scores were determined based on three replicates. Score 0 corresponded to less than 50% eggs, score 1 to 50–200%, and score 2 to over 200% of the egg count compared to the negative control. The means of the scores were later normalized to the range 0–2 (0–200%).

[1] = test system: newly transformed schistosomula (NTS); assay: In vitro screening against newly transformed schistosomula (Basel); assay type: cell-based, Schistosoma mansoni; conditions: 10 µM, 72 h incubation, Basel team
Description: At the Basel lab, infected B. glabrata snails were placed for 4 h under a light source to initiate the shedding of cercariae, which were collected, mechanically transformed into NTS, and kept in M199 medium supplemented with 5% fetal calf serum (FCS), 1% Mäsermix, and 1% penicillin/streptomycin (pen./strep.) 10,000 U/ml, at 37 °C and 5% CO2 [27]. To collect adult S. mansoni, mesenteric veins of infected hamsters were dissected on day 49 post-infection. The worms were placed in supplemented RPMI 1640 medium (containing 5% FCS, 1% pen., and 100 μg/ml strep.) and incubated at 37 °C with 5% CO2 until further use.
The Basel team performed the screening as follows: the stock solutions of each compound from the library (10 mM) were diluted with M199 medium (supplemented with 1% pen./strep., 1% Mäsermix, 5% FCS) and NTS solution (0.7 NTS/µL) in a transparent flat-bottom 96-well plate (Sarstedt, Switzerland), resulting in a final volume of 250 µL, 30–40 NTS, and a drug concentration of 10 µM. For adults, the drugs were diluted to 10 µM in 2 mL with RPMI 1640 medium (supplemented with 1% pen./strep. and 5% FCS) in a 24-well plate (Sarstedt, Switzerland), and three schistosome couples were added. […] For both life stages, DMSO served as a negative control (< 1% of the final volume). The plates were incubated at 37 °C and 5% CO2. […]

Schistosoma mansoni = conditions: cited from earlier work

Row | SMILES | Effect on egg production (adult S. mansoni couples) | further results
1 | CC1(C)Oc2ccc(C#N)cc2[C@H](n2ccccc2=O)[C@H]1O [OGHL00027] | affected | –
2 | CCCCc1nc2ccn(Cc3ccccc3C(=O)O)c(=O)c2n1Cc1ccc(-c2ccccc2-c2nn[nH]n2)cc1 [OGHL00034] | affected | –
3 | CCCSc1cc(C)c(C(=O)N=C(N)N)cc1S(C)(=O)=O [OGHL00050] | affected | –
4 | CCc1cc(C)c(C(=O)N=C(N)N)cc1S(C)(=O)=O [OGHL00053] | affected | –
5 | Cc1cc(C2CCC2)c(S(C)(=O)=O)cc1C(=O)N=C(N)N [OGHL00061] | affected | –
6 | O=C(O)c1ccc(-c2nc(NCc3ccccc3)c3c4c(sc3n2)CCCC4)cc1 [OGHL00079] | affected | –
7 | COc1ccc(CNc2nc(CCCCC(=O)O)nc3sc4c(c23)CCCC4)cc1Cl [OGHL00092] | affected | –
8 | O=C(O)c1ccc(-c2nc(NCc3ccc4c(c3)OCO4)c3cc(Cl)sc3n2)cc1 [OGHL00093] | affected | –
9 | COC(=O)c1cc(C(=O)N=C(N)N)c(C)cc1C [OGHL00094] | affected | –
10 | COc1ccc(CNc2nc(CCCCC(=O)O)nc3sc4ccccc4c23)cc1Cl [OGHL00101] | affected | –
11 | CCCCCCN(Cc1ccc(C#Cc2ccc(CCCC)cc2)cc1)c1ccc(O)c(C(=O)O)c1 [OGHL00126] | affected | –
12 | COc1nc(/C=C/c2nc3n(n2)CCCC3c2ccccc2C(F)(F)F)ccc1-n1cnc(C)c1 (centres unmarked) [OGHL00208] | affected | –
13 | COc1cc(C(=O)Nc2cn(Cc3ccc(Cl)c(Cl)c3)nn2)ccc1-n1cnc(C)c1 [OGHL00219] | affected | –
14 | COc1ccc(OCC(N)=O)cc1-c1cn2cc(C(=O)NCCc3c(OC)cccc3OC)sc2n1 [OGHL00241] | affected | –
15 | O=C(C1CCCCC1)N1CC(=O)N2CCc3ccccc3[C@@H]2C1 [OGHL00244, (R)-PZQ, reference compound] | drastically reduced | Activity against NTS [1]: greater than 65%; Attachment after 4 h (adult S. mansoni couples; adult couples, Giessen team): strong effects on attachment capacity; Pairing stability after 4 h (adult S. mansoni couples; adult couples, Giessen team): no effect on pairing stability; Pairing stability after 24 h (adult S. mansoni couples; adult couples, Giessen team): no effect on pairing stability
16 | O=C(C1CCCCC1)N1CC(=O)N2CCc3ccccc3[C@H]2C1 [OGHL00245] | – | Couples separated after 4 h (adult S. mansoni couples): > 50%; Couples separated after 24 h (adult S. mansoni couples): separation of all couples
17 | COc1ccc(OCC(=O)O)cc1-c1cn2cc(C(=O)NCCc3c(OC)cc(Cl)cc3OC)sc2n1 [OGHL00248] | affected | –
18 | O=C(C1CCCCC1)N1CC(=O)N2CCc3ccccc3C2C1 (centres unmarked) [PZQ, praziquantel] | – | EC50 (Schistosoma mansoni; at 4 h): 0.1 mg/L; EC50 (Schistosoma mansoni; at 72 h, ref 32, read-out: EC50): 0.1 µM; EC50 (Schistosoma mansoni; at 72 h, ref 33): 0.05 mg/L; Motility score in the initial approach (adult S. mansoni couples; within 24 h): about 0
